These results are taken from patent US20250129103A1, “METHODS FOR TREATMENT OF CANCER” (Frontier Medicines Corporation, priority 2022, published 2025).

Usually IC50 stands for the point on the concentration scale where inhibition reaches its midpoint.

Molecules are shown by their SMILES. In brackets after ≈: the same amount, converted by molar mass. Where only a bound is given, the exact number is not on record here.

Series [1] deals with KRAS G12C (GMPPNP-loaded) and cRAF (Ras-binding domain) interaction (Homo sapiens (Human), UniProt P01116, C118S/C51S/C80L/G12C). The experiment in a line: Inhibition of KRAS G12C and cRAF binding (AlphaScreen). The following applies: KRAS G12C loaded with GMPPNP, cRaf RBD, 2 hours preincubation; read-out: Raf-1 RBD K-Ras IC50. The method, boiled down: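 AlphaScreen readout (680 nm excitation, 570 nm emission) of RBD binding after a 60-90 min bead step at room temperature. This step follows 2 h compound exposure of GMPPNP-preloaded KRAS G12C in Hepes pH 7.4 buffer with MgCl2 and 10 μM GMPPNP.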
KRAS G12C (GMPPNP-loaded) and cRAF (Ras-binding domain) interaction, sequence (P01116 other isoform, or with tags, fused parts or gaps G12C/C51S/C80L/C118S): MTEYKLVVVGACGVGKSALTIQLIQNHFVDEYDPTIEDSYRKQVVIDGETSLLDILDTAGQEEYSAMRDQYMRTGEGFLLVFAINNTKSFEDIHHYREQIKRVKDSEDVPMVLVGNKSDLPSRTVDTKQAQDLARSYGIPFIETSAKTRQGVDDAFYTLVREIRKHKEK
(In Alpha technology, singlet oxygen from a donor bead excites a nearby acceptor bead.)

The target in series [2] is KRAS G12C (GMPPNP-loaded) and PI3Ka (Ras-binding domain) interaction (Homo sapiens (Human), UniProt P01116, C118S/C51S/C80L/G12C). The experiment in a line: Inhibition of KRAS G12C and PI3Ka binding (AlphaScreen). The following applies: KRAS G12C loaded with GMPPNP, PI3Ka RBD, 2 hours preincubation; read-out: PI3K RBD K-Ras IC50. The method, boiled down: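 Biotin-AviTag Cys-light KRAS G12C (aa 1-169, C51S/C80L/C118S), GMPPNP-loaded, 1.5 nM, preincubated 2 h with compound, then His-tagged PI3Ka RBD (aa 157-300, 100 nM) plus AlphaScreen beads added for 60-90 min, RT. Buffer Hepes pH 7.4, 10 μM GMPPNP, 2% DMSO; 10-point 1:3 from 50 μM; 4-parameter IC50.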
KRAS G12C (GMPPNP-loaded) and PI3Ka (Ras-binding domain) interaction, sequence (P01116 other isoform, or with tags, fused parts or gaps G12C/C51S/C80L/C118S): as above

Series [3] can be described thus: Determination of logD (1-octanol / phosphate buffer pH 7.4). Type of series: physicochemical. The following applies: 1-octanol/phosphate buffer, pH 7.4, pH 7.4, 1-octanol/phosphate buffer; read-out: Log D, pH 7.4. The essentials:
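Each phase analysed by LCMS after 1 h shaking at 800 rpm and centrifugation, room temperature. Phases were mutually saturated 1-octanol and 100 mM phosphate buffer at pH 7.4. LogD derived from the phase concentrations.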

A short description of series [4]: Determination of kinetic solubility (pH 7.4). The following applies: phosphate buffer, pH 7.4, aqueous buffer, kinetic from dmso stock, 50 mM phosphate buffer pH 7.4, read-out: Ksol, pH 7.4. Type of series: physicochemical. The essentials: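 Solubility taken from filtrate peak areas on a calibration curve (HPLC-UV, LC-MS/MS). Before filtration and centrifugation, compound was shaken for 2 h at room temperature in pH 7.4 50 mM phosphate buffer.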

For `CCO[C@@H]1CCN(C/C=C/C(=O)N2CCN(c3nc(OC[C@@]45CCCN4C[C@H](F)C5)nc4c(F)c(-c5cccc6cccc(Cl)c56)ncc34)C[C@@H]2CC#N)C1` [Compound 92, 2-((S)-4-(7-(8-chloronaphthalen-1-yl)-8-fluoro-2-(((2R,7aS)-2-fluorohexahydro-1H-pyrrolizin-7a-yl)methoxy)pyrido[4,3-d]pyrimidin-4-yl)-1-((E)-4-((R)-3-ethoxypyrrolidin-1-yl)but-2-enoyl)piperazin-2-yl)acetonitrile], the IC50 in series [1] and in series [2] was below 10 nM each time. For the same compound, the logD in series [3] stood at 3.35. Further, the solubility kinetic at 2 h in series [4] was 104 µg/mL (≈ 135 µM).

For the compound `N#CC[C@H]1CN(c2nc(OC[C@@]34CCCN3C[C@H](F)C4)nc3c(F)c(-c4cccc5ccc(F)c(F)c45)ncc23)CCN1C(=O)/C=C/CN1[C@@H]2CC[C@H]1COC2` [Compound 93, 2-((S)-1-((E)-4-((1R,5S)-3-oxa-8-azabicyclo[3.2.1]octan-8-yl)but-2-enoyl)-4-(7-(7,8-difluoronaphthalen-1-yl)-8-fluoro-2-(((2R,7aS)-2-fluorotetrahydro-1H-pyrrolizin-7a(5H)-yl)methoxy)pyrido[4,3-d]pyrimidin-4-yl)piperazin-2-yl)acetonitrile], the IC50 in series [1] and in series [2] was below 10 nM in each case. Also, in series [3], the logD came to 3.07. In addition, the solubility kinetic at 2 h in series [4] was 72.4 µg/mL (≈ 94 µM).

On to `N#CC[C@H]1CN(c2nc(OC[C@@]34CCCN3C[C@H](F)C4)nc3c(F)c(-c4cccc5cccc(F)c45)ncc23)CCN1C(=O)/C=C/CN1[C@@H]2CC[C@H]1COC2` [Compound 94, 2-((S)-1-((E)-4-((1R,5S)-3-oxa-8-azabicyclo[3.2.1]octan-8-yl)but-2-enoyl)-4-(8-fluoro-7-(8-fluoronaphthalen-1-yl)-2-(((2R,7aS)-2-fluorotetrahydro-1H-pyrrolizin-7a(5H)-yl)methoxy)pyrido[4,3-d]pyrimidin-4-yl)piperazin-2-yl)acetonitrile], for which the IC50 in series [1] and in series [2] was below 10 nM throughout. Further, the logD in series [3] was found to be 3.11. For the same compound, the solubility kinetic at 2 h in series [4] worked out at 90.2 µg/mL (≈ 120 µM).

As for `N#CC[C@H]1CN(c2nc(OC[C@@]34CCCN3C[C@H](F)C4)nc3c(F)c(-c4cccc5cccc(Cl)c45)ncc23)CCN1C(=O)/C=C/CN1CC[C@H](F)C1` [Compound 95, 2-((S)-4-(7-(8-chloronaphthalen-1-yl)-8-fluoro-2-(((2R,7aS)-2-fluorohexahydro-1H-pyrrolizin-7a-yl)methoxy)pyrido[4,3-d]pyrimidin-4-yl)-1-((E)-4-((S)-3-fluoropyrrolidin-1-yl)but-2-enoyl)piperazin-2-yl)acetonitrile], the IC50 in series [1] and in series [2] was below 10 nM in each case. Further, the logD in series [3] was determined as 1.63. The solubility kinetic at 2 h in series [4] was found to be 73.6 µg/mL (≈ 98.7 µM).

As for `N#CC[C@H]1CN(c2nc(OC[C@@]34CCCN3C[C@H](F)C4)nc3c(F)c(-c4cccc5cccc(Cl)c45)ncc23)CCN1C(=O)/C=C/CN1CC[C@@H](F)C1` [Compound 96, 2-((S)-4-(7-(8-chloronaphthalen-1-yl)-8-fluoro-2-(((2R,7aS)-2-fluorohexahydro-1H-pyrrolizin-7a-yl)methoxy)pyrido[4,3-d]pyrimidin-4-yl)-1-((E)-4-((R)-3-fluoropyrrolidin-1-yl)but-2-enoyl)piperazin-2-yl)acetonitrile], the IC50 in series [1] and in series [2] was below 10 nM in each case. Besides, the logD in series [3] is 2.82. The solubility kinetic at 2 h in series [4] is 64.4 µg/mL (≈ 86.5 µM).

Consider `C#Cc1c(F)ccc2cccc(-c3ncc4c(N5CCN(C(=O)/C=C/c6cc(C)nc(C)n6)[C@@H](CC#N)C5)nc(OC[C@@]56CCCN5C[C@H](F)C6)nc4c3F)c12` [Compound 101, 2-((S)-1-((E)-3-(2,6-dimethylpyrimidin-4-yl)acryloyl)-4-(7-(8-ethynyl-7-fluoronaphthalen-1-yl)-8-fluoro-2-(((2R,7aS)-2-fluorotetrahydro-1H-pyrrolizin-7a(5H)-yl)methoxy)pyrido[4,3-d]pyrimidin-4-yl)piperazin-2-yl)acetonitrile], for which the IC50 in series [1] and in series [2] was below 10 nM throughout. In series [3], the logD is 3.32. Further, the solubility kinetic at 2 h in series [4] was 1.49 µg/mL (≈ 1.97 µM).

Consider `Cc1cc(/C=C/C(=O)N2CCN(c3nc(OC[C@@]45CCCN4C[C@H](F)C5)nc4c(F)c(-c5cccc(Cl)c5C5CC5)ncc34)C[C@@H]2CC#N)nc(C)n1` [Compound 102, 2-((S)-4-(7-(3-chloro-2-cyclopropylphenyl)-8-fluoro-2-(((2R,7aS)-2-fluorotetrahydro-1H-pyrrolizin-7a(5H)-yl)methoxy)pyrido[4,3-d]pyrimidin-4-yl)-1-((E)-3-(2,6-dimethylpyrimidin-4-yl)acryloyl)piperazin-2-yl)acetonitrile], for which the IC50 in series [1] and in series [2] was below 10 nM each time. Besides, the logD in series [3] came out at 3.98. In series [4], the solubility kinetic at 2 h came to 12 µg/mL (≈ 16.2 µM).

Turning to `C#Cc1c(F)ccc2cccc(-c3ncc4c(N5CCN(C(=O)/C=C/c6ccnc(C)n6)[C@@H](CC#N)C5)nc(OC[C@@]56CCCN5C[C@H](F)C6)nc4c3F)c12` [Compound 103, 2-((S)-4-(7-(8-ethynyl-7-fluoronaphthalen-1-yl)-8-fluoro-2-(((2R,7aS)-2-fluorotetrahydro-1H-pyrrolizin-7a(5H)-yl)methoxy)pyrido[4,3-d]pyrimidin-4-yl)-1-((E)-3-(2-methylpyrimidin-4-yl)acryloyl)piperazin-2-yl)acetonitrile], the IC50 in series [1] and in series [2] was below 10 nM throughout. The logD in series [3] amounted to 3.29. Besides, in series [4], the solubility kinetic at 2 h is 10 µg/mL (≈ 13.5 µM).

Turning to `N#CC[C@H]1CN(c2nc(OC[C@@]34CCCN3C[C@H](F)C4)nc3c(F)c(-c4cccc(Cl)c4C(F)(F)F)ncc23)CCN1C(=O)/C=C/CN1[C@@H]2CC[C@H]1COC2` [Compound 111, 2-((S)-1-((E)-4-((1R,5S)-3-oxa-8-azabicyclo[3.2.1]octan-8-yl)but-2-enoyl)-4-(7-(3-chloro-2-(trifluoromethyl)phenyl)-8-fluoro-2-(((2R,7aS)-2-fluorotetrahydro-1H-pyrrolizin-7a(5H)-yl)methoxy)pyrido[4,3-d]pyrimidin-4-yl)piperazin-2-yl)acetonitrile], the IC50 in series [1] and in series [2] was below 10 nM in each case. Moreover, in series [3], the logD was determined as 3.23. For the same compound, the solubility kinetic at 2 h in series [4] is 133 µg/mL (≈ 169 µM).

Turning to `N#CC[C@H]1CN(c2nc(OC[C@@]34CCCN3C[C@H](F)C4)nc3c(F)c(-c4cccc(Cl)c4C(F)(F)F)ncc23)CCN1C(=O)/C=C/CN1CCCOCC1` [Compound 113, 2-((S)-1-((E)-4-(1,4-oxazepan-4-yl)but-2-enoyl)-4-(7-(3-chloro-2-(trifluoromethyl)phenyl)-8-fluoro-2-(((2R,7aS)-2-fluorotetrahydro-1H-pyrrolizin-7a(5H)-yl)methoxy)pyrido[4,3-d]pyrimidin-4-yl)piperazin-2-yl)acetonitrile], the half-maximal inhibitory concentration (IC50) in series [1] and in series [2] was below 10 nM in each case. For the same compound, the logD in series [3] is 2.84. In addition, the solubility kinetic at 2 h in series [4] amounted to 124 µg/mL (≈ 160 µM).

Take `Cc1nccc(/C=C/C(=O)N2CCN(c3nc(OC[C@@]45CCCN4C[C@H](F)C5)nc4c3CCN(c3cccc5cccc(Cl)c35)C4)C[C@@H]2CC#N)n1` [Compound 123]: the half-inhibitory concentration (IC50) in series [1] and in series [2] was below 10 nM throughout. Moreover, in series [3], the logD came out at 4.46. For the same compound, the solubility kinetic at 2 h in series [4] turned out to be 0.01 µg/mL (≈ 0.0138 µM).

For the compound `CC(C)c1noc(/C=C/C(=O)N2CCN(c3nc(OCC45CCCN4CCC5)nc4c3CNC(c3cccc5cccc(Cl)c35)C4F)C[C@@H]2CC#N)n1` (stereo partly drawn) [Compound 124], the IC50 in series [1] and in series [2] was 10 to 100 nM throughout. Moreover, the logD in series [3] amounted to 4.21. Besides, in series [4], the solubility kinetic at 2 h is 0.23 µg/mL (≈ 0.311 µM).

Take `CC(C)c1noc(/C=C/C(=O)N2CCN(c3nc(OCC45CCCN4CCC5)nc4c3CCN(c3cccc5ccc(F)c(Cl)c35)C4)C[C@@H]2CC#N)n1` [Compound 126]: the 50% inhibitory concentration (IC50) in series [1] and in series [2] was 10 to 100 nM throughout. Further, in series [3], the logD stood at 4.24. Moreover, the solubility kinetic at 2 h in series [4] came to 0.01 µg/mL (≈ 0.0135 µM).

On to `Cc1nsc(/C=C/C(=O)N2CCN(c3nc(OC[C@@]45CCCN4C[C@H](F)C5)nc4c3CCN(c3cccc5cccc(Cl)c35)C4)C[C@@H]2CC#N)n1` [Compound 127], for which the half-inhibitory concentration (IC50) in series [1] and in series [2] was below 10 nM throughout. Besides, the logD in series [3] was 4.77. For the same compound, the solubility kinetic at 2 h in series [4] is 0.01 µg/mL (≈ 0.0137 µM).

Consider `CC(C)c1noc(/C=C/C(=O)N2CCN(c3nc(OC[C@@]45CCCN4C[C@H](F)C5)nc4c3CCN(c3cccc5ccc(F)c(Cl)c35)C4)C[C@@H]2CC#N)n1` [Compound 128], for which the half-inhibitory concentration (IC50) in series [1] and in series [2] was 10 to 100 nM each time. Further, in series [3], the logD was found to be 4.56. Besides, in series [4], the solubility kinetic at 2 h was 0.01 µg/mL (≈ 0.0132 µM).
